# Experimental data as given in article PMC9886550, “Molecular mechanism of topoisomerase poisoning by the peptide antibiotic albicidin” (Nature Catalysis, 2023).
# Like-named read-outs stand apart in the source and are kept apart here.
# Assays:
# E. coli Topo IV = E. coli Topo IV (Escherichia coli, UniProt P0AFI2+P20083); assay: Topo IV cleavage assay (cleavage complex stabilization); type: biochemical; conditions: for concentration at which a linear DNA band could be observed: Topo IV cleavage complex stabilization, tested 0.1, 1, 10, 100 µM; for stabilization of the cleavage complex with Topo IV: in words
# Experimental: Topo IV cleavage assays were set up in the same way as relaxation assays with some modifications. The concentration of enzyme was increased by 20% and cleavage complexes were trapped by the addition of 0.2% SDS and proteinase K (0.2 mg ml^−1) and further incubation at 37 °C for 30 min. Reactions were stopped in the same way as supercoiling assays.
# (§1) Results were visualized by agarose gel electrophoresis: 1% agarose Tris-acetate-EDTA (TAE) gels were run without ethidium bromide (supercoiling) or with 10 µg ml^−1 ethidium bromide (cleavage) at 8 V cm^−1.
# Supplementary Figure 11. Activity of albicidin and Albi-1/2/3 on E. coli […]
# Cleavage activity of E. coli topo IV in the presence of albicidin, Albi-1, Albi-2 and Albi-3. First lane: negatively supercoiled pBR322; second lane: innate cleavage activity of E. coli topo IV (15 nM); third lane: effect of 20 µM CFX; subsequent lanes: effect of increasing compound concentration (0.1, 1, 10, 100 µM). […]
# concentration. All experiments were carried out in triplicates and representative gels […]
# (1 picture or pasted object on this page, not shown here)
# S. typhimurium TA100 = assay: MIC determination (microdilution, M07-A9); type: cell-based
# Experimental: (§2) MIC values were determined according to the ninth edition of the Approved Standard M07-A9. The test was carried out for six different bacterial strains (E. coli DSM 1116 (Gram-negative), E. coli BW25113 (Gram-negative), B. subtilis DSM 10 (Gram-positive), M. luteus DSM 1790 (Gram-positive), M. phlei DSM 750 (Gram-positive), S. typhimurium TA 100 (Gram-negative). First, 20 µl of glycerol stock of each strain was inoculated in 20 ml LB (Lennox) followed by incubation overnight at 37 °C, 200 r.p.m. The test inoculum was adjusted by the 0.5 McFarland Standard. Within 15 min of preparation, the adjusted inoculum suspension was diluted in MHBII so that each well contained approximately 5 × 10^5 c.f.u. ml^−1 in a final volume of 100 µl. Then, 95 µl of the inoculum was applied per well and 5 µl of the (diluted) albicidins was added. For dilutions, the dry powders were dissolved in dimethylsulfoxide (DMSO) with a concentration of 2.56 mg ml^−1, and the obtained stock solutions were further diluted in DMSO. Next, 5 µl of each antibiotic dilution was applied to the microdilution tray to reach final concentrations of 8 to 0.016 µg ml^−1. One row of each well plate served as a growth control without antibiotic and another row of the microdilution tray served as a sterility control (only MHBII media). The antimicrobial effect of the solvent was tested by adding 5 µl DMSO to several wells. Purity check and cell titre control were performed according to International Standard M07-A9 on Mueller–Hinton II Agar. Both microdilution trays and agar plates were incubated at 37 °C for 20 h.
# E. coli BW25113 = assay: MIC determination (microdilution, M07-A9); type: cell-based
# Experimental: as §2
# M. phlei DSM750 = assay: MIC determination (microdilution, M07-A9); type: cell-based; conditions: Mycolicibacterium phlei
# Experimental: as §2
# B. subtilis DSM10 = assay: MIC determination (microdilution, M07-A9); type: cell-based; conditions: Bacillus subtilis
# Experimental: as §2
# M. luteus DSM1790 = assay: MIC determination (microdilution, M07-A9); type: cell-based
# Experimental: as §2
# E. coli DSM116 = assay: MIC determination (microdilution, M07-A9); type: cell-based; conditions: Escherichia coli, DSM116, E. coli DSM116, read-out: MIC
# Experimental: as §2
# E. coli gyrase GyrA^A67Q = target: T1, E. coli gyrase GyrA^A67Q (Escherichia coli, UniProt P0AES4+P0AES6, A67Q); assay: DNA gyrase cleavage assay (CC50, % cleaved DNA); type: biochemical; conditions: for % maximal cleavage: GyrAA67Q, average of 3 independent assays; for EC50: GyrA^A67Q, mean ± s.d. of triplicate; for % cleaved DNA Average: average of replicates
# T1 construct: alternative cryo-EM approach involving full-length E. coli gyrase; 10-His (cleaved yes); Twin-Strep (cleaved yes); made in house
# Experimental: (§3) For DNA gyrase supercoiling assays to characterize gyrase mutants, 15 µl reactions were set up containing 250 ng of relaxed DNA, E. coli gyrase supercoiling buffer (35 mM Tris–Cl pH 7.5, 24 mM KCl, 4 mM MgCl2, 2 mM DTT, 1.8 mM spermidine, 1 mM ATP, 6.0% (w/v) glycerol, and 0.1 mg ml^−1 BSA), gyrase subunits and inhibitors. Concentrations of enzyme and inhibitor are stated in the figure legends. Inhibitors were diluted in the following way to reduce the chance of precipitation: stock compound in 100% DMSO was diluted to 5 mM in 100% DMSO. This compound solution was diluted to 1 mM by stepwise addition of 1 µl of 50% DMSO with thorough mixing via pipetting after each addition. All subsequent dilutions up to 100 µM were performed in the same way using H2O. After this point, compounds were stable and could be diluted in the normal way. Reactions were incubated at 37 °C for 30 min before stopping with 15 µl chloroform:isoamyl alcohol (24:1 v/v) and 15 µl of STEB (40% (w/v) sucrose, 100 mM Tris–Cl pH 8, 10 mM EDTA, 0.5 mg ml^−1 bromophenol blue).
# (§4) Cleavage assays were set up in the same way as supercoiling assays with some modifications. The concentration of enzyme was increased 4-fold relative to the supercoiling assay and reactions were incubated for 1 h before addition of 0.2% SDS and proteinase K (0.2 mg ml^−1) and further incubation at 37 °C for 30 min to trap cleavage complexes. Reactions were stopped in the same way as supercoiling assays.
# as §1
# (§5) DNA cleavage gels were analysed using densitometry (ImageJ). Experiments were carried out in triplicate and expressed as mean ± s.d. Curves were fitted using OriginPro 2021 (Origin Lab) according to a modified Hill equation:1 y=cI+(cF−cI)[…]/(k^n+x^n) where y is the percentage of cleaved DNA, cI is the initial cleavage, cF is the final cleavage, k is the CC50 (the concentration of inhibitor that results in cleavage of 50% of DNA), n is a slope factor and x is the inhibitor concentration.
# [1] = target: T2, E. coli gyrase GyrA^M120A (Escherichia coli, UniProt P0AES4+P0AES6, M120A); assay: DNA gyrase cleavage assay (CC50, % cleaved DNA); type: biochemical; conditions: for % maximal cleavage: GyrAM120A, average of 3 independent assays; for EC50: GyrA^M120A, mean ± s.d. of triplicate; for % cleaved DNA Average: average of replicates
# T2 construct: alternative cryo-EM approach involving full-length E. coli gyrase; 10-His (cleaved yes); Twin-Strep (cleaved yes); made in house
# Experimental: as §3, §4, §1, §5
# [2] = Salmonella enterica, first value in cell (biological replicate), read-out: MIC
# [3] = second value in cell (biological replicate)
# [4] = E. coli BW25113, second value in cell (biological replicate)
# [5] = Escherichia coli, BW25113, E. coli strain not named, read-out: MIC for E. coli
# [6] = Escherichia coli, E. coli BW25113, first value in cell (biological replicate), read-out: MIC
# [7] = first value in cell (biological replicate)
# [8] = Micrococcus luteus, first value in cell (biological replicate), read-out: MIC
smiles,measurement,setting,value
CC(C)Oc1c(NC(=O)c2ccc(NC(=O)[C@H](Cc3c[nH]nn3)NC(=O)c3ccc(NC(=O)c4ccc(C#N)cc4)cn3)cn2)ccc(C(=O)Nc2ccc(C(=O)O)cc2)c1O [Albi-1],concentration at which a linear DNA band could be observed,E. coli Topo IV,1 µM
same,stabilization of the cleavage complex with Topo IV,E. coli Topo IV,could stabilize the cleavage complex
same,MIC,S. typhimurium TA100; [2],< 0.016 µg/mL
same,MIC,S. typhimurium TA100; [3],<0.016 <0.016 µg ml^−1
same,MIC,E. coli BW25113; [4],<0.016 <0.016 µg ml^−1
same,MIC,E. coli BW25113; [5],≤ 0.016 µg/mL
same,MIC,E. coli BW25113; [6],< 0.016 µg/mL
same,MIC,M. phlei DSM750; [7],0.25 µg/mL
same,MIC,M. phlei DSM750; [3],0.5 µg/mL
same,MIC,B. subtilis DSM10; [7],0.031 µg/mL
same,MIC,B. subtilis DSM10; [3],0.063 µg/mL
same,MIC,M. luteus DSM1790; [8],< 0.016 µg/mL
same,MIC,M. luteus DSM1790; [3],<0.016 <0.016 µg ml^−1
same,MIC,E. coli DSM116; [7],0.031 µg/mL
same,MIC,E. coli DSM116; [3],0.031 µg/mL
same,% maximal cleavage,E. coli gyrase GyrA^A67Q,96±8%
same,EC50,E. coli gyrase GyrA^A67Q,181 ± 67 nM
same,% maximal cleavage,[1],68±3%
same,EC50,[1],15 ± 1.5 nM
COc1c(NC(=O)c2ccc(NC(=O)c3ccc(NC(=O)[C@H](Cc4c[nH]nn4)NC(=O)c4ccc(NC(=O)c5ccc6cc(O)ccc6c5)cc4)cn3)c(OCCN)c2O)ccc(C(=O)O)c1O [Albi-2],MIC,S. typhimurium TA100; [2],0.5 µg/mL
same,MIC,S. typhimurium TA100; [3],0.5 µg/mL
same,MIC,E. coli BW25113; [4],4.0 µg/mL
same,MIC,E. coli BW25113; [5],4 µg/mL
same,MIC,E. coli BW25113; [6],4 µg/mL
same,increase in MIC for E. coli compared with the parent compound,E. coli BW25113; vs albicidin,60 fold
same,MIC,M. phlei DSM750; [7],> 8 µg/mL
same,MIC,M. phlei DSM750; [3],> 8 µg/mL
same,MIC,B. subtilis DSM10; [7],> 8 µg/mL
same,MIC,B. subtilis DSM10; [3],> 8 µg/mL
same,MIC,M. luteus DSM1790; [8],> 8 µg/mL
same,MIC,M. luteus DSM1790; [3],>8.0 >8.0 µg ml^−1
same,MIC,E. coli DSM116; [7],2 µg/mL
same,MIC,E. coli DSM116; [3],4 µg/mL
same,% maximal cleavage,[1],59±17%
same,EC50,[1],160 ± 15 nM
COc1c(NC(=O)c2ccc(NC(=O)c3ccc(NC(=O)[C@H](Cc4c[nH]nn4)NC(=O)c4ccc(NC(=O)c5ccc6nc(C)ccc6c5)cc4)cn3)c(OC)c2O)ccc(C(=O)O)c1O [Albi-3],stabilization of the cleavage complex with Topo IV,E. coli Topo IV,could stabilize the cleavage complex
same,MIC,S. typhimurium TA100; [2],< 0.016 µg/mL
same,MIC,S. typhimurium TA100; [3],<0.016 <0.016 µg ml^−1
same,MIC,E. coli BW25113; [4],<0.016 <0.016 µg ml^−1
same,MIC,E. coli BW25113; [5],< 0.016 µg/mL
same,MIC,E. coli BW25113; [6],< 0.016 µg/mL
same,MIC,M. phlei DSM750; [7],0.5 µg/mL
same,MIC,M. phlei DSM750; [3],1 µg/mL
same,MIC,B. subtilis DSM10; [7],0.063 µg/mL
same,MIC,B. subtilis DSM10; [3],0.125 µg/mL
same,MIC,M. luteus DSM1790; [8],0.063 µg/mL
same,MIC,M. luteus DSM1790; [3],0.063 µg/mL
same,MIC,E. coli DSM116; [7],< 0.016 µg/mL
same,MIC,E. coli DSM116; [3],< 0.016 µg/mL
same,% maximal cleavage,E. coli gyrase GyrA^A67Q,78±6%
same,EC50,E. coli gyrase GyrA^A67Q,328 ± 19 nM
COc1c(NC(=O)c2ccc(NC(=O)c3ccc(NC(=O)[C@H](CC#N)NC(=O)c4ccc(NC(=O)/C(C)=C/c5ccc(O)cc5)cc4)cc3)c(OC)c2O)ccc(C(=O)O)c1O [Albicidin],concentration at which a linear DNA band could be observed,E. coli Topo IV,10 µM
same,stabilization of the cleavage complex with Topo IV,E. coli Topo IV,could stabilize the cleavage complex
same,MIC,S. typhimurium TA100; [2],0.063 µg/mL
same,MIC,E. coli BW25113; [4],0.063 µg/mL
same,MIC,E. coli BW25113; [6],0.063 µg/mL
same,MIC,M. phlei DSM750; [7],2 µg/mL
same,MIC,M. phlei DSM750; [3],2 µg/mL
same,MIC,B. subtilis DSM10; [7],< 0.25 µg/mL
same,MIC,B. subtilis DSM10; [3],0.25 µg/mL
same,MIC,M. luteus DSM1790; [8],1 µg/mL
same,MIC,M. luteus DSM1790; [3],1.0 µg/mL
same,MIC,E. coli DSM116; [7],0.063 µg/mL
same,MIC,E. coli DSM116; [3],0.063 µg/mL
same,increase in CC50,E. coli gyrase GyrA^A67Q; 1 h,more than 10 fold
same,% maximal cleavage,E. coli gyrase GyrA^A67Q,83±1%
same,EC50,E. coli gyrase GyrA^A67Q,610 ± 124 nM
same,% cleaved DNA Average,E. coli gyrase GyrA^A67Q; albicidin 0.01 µM,3.538%
same,% cleaved DNA Average,E. coli gyrase GyrA^A67Q; albicidin 0.025 µM,4.787%
same,% cleaved DNA Average,E. coli gyrase GyrA^A67Q; albicidin 0.05 µM,6.475%
same,% cleaved DNA Average,E. coli gyrase GyrA^A67Q; albicidin 0.1 µM,6.201%
same,% cleaved DNA Average,E. coli gyrase GyrA^A67Q; albicidin 0.25 µM,17.9877%
same,% cleaved DNA Average,E. coli gyrase GyrA^A67Q; albicidin 0.5 µM,34.7807%
same,% cleaved DNA Average,E. coli gyrase GyrA^A67Q; albicidin 1 µM,60.5747%
same,% cleaved DNA Average,E. coli gyrase GyrA^A67Q; albicidin 5 µM,76.5607%
same,% cleaved DNA Average,E. coli gyrase GyrA^A67Q; albicidin 10 µM,82.9213%
same,% cleaved DNA Average,E. coli gyrase GyrA^A67Q; albicidin 25 µM,77.2008%
same,% cleaved DNA Average,E. coli gyrase GyrA^A67Q; albicidin 50 µM,74.453%
same,% maximal cleavage,[1],72±3%
same,EC50,[1],50 ± 11 nM
same,% cleaved DNA Average,[1]; albicidin 0.0005 µM,4.819%
same,% cleaved DNA Average,[1]; albicidin 0.001 µM,6.609%
same,% cleaved DNA Average,[1]; albicidin 0.0025 µM,6.667%
same,% cleaved DNA Average,[1]; albicidin 0.005 µM,6.183%
same,% cleaved DNA Average,[1]; albicidin 0.01 µM,19.8754%
same,% cleaved DNA Average,[1]; albicidin 0.025 µM,25.7528%
same,% cleaved DNA Average,[1]; albicidin 0.05 µM,41.0477%
same,% cleaved DNA Average,[1]; albicidin 0.1 µM,46.9644%
same,% cleaved DNA Average,[1]; albicidin 0.5 µM,60.6731%
same,% cleaved DNA Average,[1]; albicidin 1 µM,72.349%
